What all share (experiment): relative viability (nuclei count vs DMSO), 5 days (fraction); higher = more cells survive
Compound in assay [1]: Cn1cc(-c2cnn3c(N)c(Br)c([C@@H]4CCCNC4)nc23)cn1 + COc1cccc2cc(-c3nc([C@H]4CC[C@H](C(=O)O)CC4)n4ncnc(N)c34)[nH]c12 [OSI-027] (partner 0.5 µM)
The procedure, abridged:
(§1)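 Medians of duplicate plates are given as relative viability. That measure is the nuclei count in treated wells divided by the count in vehicle wells. Counts were taken on 4× images of lung cancer cell lines in 1536-well plates, 5 days after pin-tool dosing the day after seeding with one drug alone or a fixed anchor-drug dose plus five library-drug doses (not always all listed) in √10 steps.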

Compound in assay [2]: Cn1cc(-c2cnn3c(N)c(Br)c([C@@H]4CCCNC4)nc23)cn1 + CS(=O)(=O)CCNCc1ccc(-c2ccc3ncnc(Nc4ccc(OCc5cccc(F)c5)c(Cl)c4)c3c2)o1 [Lapatinib] (partner 2 µM)
The method in brief: as §1

Compound in assay [3]: Cn1cc(-c2cnn3c(N)c(Br)c([C@@H]4CCCNC4)nc23)cn1 + CCNC(=O)c1noc(-c2cc(C(C)C)c(O)cc2O)c1-c1ccc(CN2CCOCC2)cc1 [Luminespib] (partner 0.01 µM)
The method in brief:
as §1

Compound in assay [4]: Cn1cc(-c2cnn3c(N)c(Br)c([C@@H]4CCCNC4)nc23)cn1 + C[C@]1(O)C[C@@H](c2nc(-c3ccc4ccc(-c5ccccc5)nc4c3)c3c(N)nccn32)C1 [Linsitinib] (partner 1 µM)
The method in brief: as §1

As to NCI-H2023, the relative viability in assay [1] (first compound 0.05 µM) amounted to 0.438; in assay [1] (first compound 0.1581 µM), 0.342; in assay [1] (first compound 0.5 µM), 0.269; in assay [1] (first compound 1.581 µM), 0.159; in assay [1] (first compound 5 µM), 0.13; in assay [2] (first compound 0.05 µM), 0.978. Also, the relative viability in assay [2] (first compound 0.1581 µM) amounted to 0.739; in assay [2] (first compound 0.5 µM), 0.416; in assay [2] (first compound 1.581 µM), 0.258; in assay [2] (first compound 5 µM), 0.127; in assay [3] (first compound 0.05 µM), 0.873; in assay [3] (first compound 0.1581 µM), 0.305. In addition, the relative viability amounted to 0.234 in assay [3] (first compound 0.5 µM); 0.167 in assay [3] (first compound 1.581 µM); 0.123 in assay [3] (first compound 5 µM); 0.582 in assay [4] (first compound 0.05 µM); 0.452 in assay [4] (first compound 0.1581 µM); 0.421 in assay [4] (first compound 0.5 µM). For the same cell line, the values for the relative viability in assay [4] (first compound 1.581 µM) and in assay [4] (first compound 5 µM) were 0.244 and 0.135, respectively.
Turning to COR-L 105, the relative viability in assay [1] (first compound 0.05 µM) was 0.632; in assay [1] (first compound 0.1581 µM), 0.818; in assay [1] (first compound 0.5 µM), 0.688; in assay [1] (first compound 1.581 µM) it was 0.587; in assay [1] (first compound 5 µM), 0.487; in assay [2] (first compound 0.05 µM), 0.323. In addition, the relative viability worked out at 0.386 in assay [2] (first compound 0.1581 µM); 0.393 in assay [2] (first compound 0.5 µM); 0.354 in assay [2] (first compound 1.581 µM); 0.311 in assay [2] (first compound 5 µM); 0.712 in assay [3] (first compound 0.05 µM); 0.754 in assay [3] (first compound 0.1581 µM). Also, the relative viability was 0.696 in assay [3] (first compound 0.5 µM); 0.581 in assay [3] (first compound 1.581 µM); 0.484 in assay [3] (first compound 5 µM); 0.898 in assay [4] (first compound 0.05 µM); 0.719 in assay [4] (first compound 0.1581 µM); 0.89 in assay [4] (first compound 0.5 µM). Further, the relative viability came out at 0.878 in assay [4] (first compound 1.581 µM) and 0.645 in assay [4] (first compound 5 µM).
Turning to NCI-H1734, the relative viability in assay [1] (first compound 0.05 µM) is 0.59; in assay [1] (first compound 0.1581 µM), 0.581; in assay [1] (first compound 0.5 µM), 0.563; in assay [1] (first compound 1.581 µM), 0.54; in assay [1] (first compound 5 µM), 0.362; in assay [2] (first compound 0.05 µM), 1.06. For the same cell line, the relative viability in assay [2] (first compound 0.1581 µM) was determined as 1.08; in assay [2] (first compound 0.5 µM), 0.917; in assay [2] (first compound 1.581 µM), 0.944; in assay [2] (first compound 5 µM), 0.778; in assay [3] (first compound 0.05 µM) it was 0.197; in assay [3] (first compound 0.1581 µM), 0.185. For the same cell line, the relative viability came to 0.201 in assay [3] (first compound 0.5 µM); 0.178 in assay [3] (first compound 1.581 µM); 0.149 in assay [3] (first compound 5 µM); 0.942 in assay [4] (first compound 0.05 µM); 0.932 in assay [4] (first compound 0.1581 µM); 0.901 in assay [4] (first compound 0.5 µM). In addition, the relative viability came out at 0.778 in assay [4] (first compound 1.581 µM) and 0.744 in assay [4] (first compound 5 µM).
For NCI-H3122, the relative viability in assay [1] (first compound 0.05 µM) came to 1.26; in assay [1] (first compound 0.1581 µM), 1.06; in assay [1] (first compound 0.5 µM), 0.987; in assay [1] (first compound 1.581 µM) it was 0.543; in assay [1] (first compound 5 µM), 0.929; in assay [2] (first compound 0.05 µM) it was 1.1. For the same cell line, the relative viability in assay [2] (first compound 0.1581 µM) turned out to be 1.07; in assay [2] (first compound 0.5 µM), 1.07; in assay [2] (first compound 1.581 µM), 1.04; in assay [2] (first compound 5 µM) it was 1.05; in assay [3] (first compound 0.05 µM) it was 0.0947; in assay [3] (first compound 0.1581 µM) it was 0.0737. Further, the relative viability turned out to be 0.0857 in assay [3] (first compound 0.5 µM); 0.0666 in assay [3] (first compound 1.581 µM); 0.12 in assay [3] (first compound 5 µM); 1.02 in assay [4] (first compound 0.05 µM); 1.06 in assay [4] (first compound 0.1581 µM); 0.964 in assay [4] (first compound 0.5 µM). Moreover, the figures for the relative viability in assay [4] (first compound 1.581 µM) and in assay [4] (first compound 5 µM) were 1.08 and 1.09, respectively.
For the cell line CAL-12T, the relative viability came to 0.554 in assay [1] (first compound 0.05 µM); 0.841 in assay [1] (first compound 0.1581 µM); 0.682 in assay [1] (first compound 0.5 µM); 0.266 in assay [1] (first compound 1.581 µM); 0.121 in assay [1] (first compound 5 µM); 0.713 in assay [2] (first compound 0.05 µM). Also, the relative viability came to 0.735 in assay [2] (first compound 0.1581 µM); 0.723 in assay [2] (first compound 0.5 µM); 0.618 in assay [2] (first compound 1.581 µM); 0.395 in assay [2] (first compound 5 µM); 0.517 in assay [3] (first compound 0.05 µM); 0.173 in assay [3] (first compound 0.1581 µM). Further, the relative viability in assay [3] (first compound 0.5 µM) was 0.252; in assay [3] (first compound 1.581 µM) it was 0.289; in assay [3] (first compound 5 µM), 0.204; in assay [4] (first compound 0.05 µM) it was 0.786; in assay [4] (first compound 0.1581 µM), 0.929; in assay [4] (first compound 0.5 µM), 0.809. The values for the relative viability in assay [4] (first compound 1.581 µM) and in assay [4] (first compound 5 µM) were 0.616 and 0.262, respectively.
For the cell line NCI-H2085, the relative viability in assay [1] (first compound 0.05 µM) was determined as 0.809; in assay [1] (first compound 0.1581 µM) it was 0.954; in assay [1] (first compound 0.5 µM) it was 0.78; in assay [1] (first compound 1.581 µM) it was 0.652; in assay [1] (first compound 5 µM), 0.431; in assay [2] (first compound 0.05 µM), 0.801. The relative viability is 0.847 in assay [2] (first compound 0.1581 µM); 0.893 in assay [2] (first compound 0.5 µM); 0.738 in assay [2] (first compound 1.581 µM); 0.621 in assay [2] (first compound 5 µM); 0.4 in assay [3] (first compound 0.05 µM); 0.477 in assay [3] (first compound 0.1581 µM). In addition, the relative viability in assay [3] (first compound 0.5 µM) worked out at 0.461; in assay [3] (first compound 1.581 µM) it was 0.417; in assay [3] (first compound 5 µM) it was 0.339; in assay [4] (first compound 0.05 µM), 0.85; in assay [4] (first compound 0.1581 µM) it was 0.885; in assay [4] (first compound 0.5 µM), 0.859. Besides, the relative viability in assay [4] (first compound 1.581 µM) is 0.824; in assay [4] (first compound 5 µM), 0.779.

Values taken from the supplement of paper PMC10307832.
